Laboratory results as given in patent US5849526A, “Use of linalool synthase in genetic engineering of scent production” (The Regents of the University of Michigan, priority 1996, dated 1998).
Like-named read-outs stand apart in the source and are kept apart here.

Columns and labels:
[1] = biological target: T1, C. breweri S-linalool synthase (Clarkia breweri, UniProt Q96376); experiment: S-linalool synthase (LIS) enzyme assay: conversion of [1-3H]-GPP to linalool, hexane/pentane overlay, scintillation counting or radio-GC; format: biochemical; details: for whether the divalent metal ion supports the enzymatic reaction (Neither ... nor ... support): at 1 to 10 mM, as the chloride salts; for Specific Activity: by purification step, starting material 10 g excised stigmata; for rate of conversion to linalool relative to the rate for GPP: LPP enantiomers tested as alternate substrates; for Rate (substrate specificity, relative to GPP = 100%): putative substrates tested at 12 μM, averages and SE of four replicate determinations; for efficiency of divalent metal ion as cofactor (in words): Mg2+ substituting for Mn2+; for effect of detergent on enzyme activity: 0.1% w/v (SDS at similar levels)
T1 construct: active as monomer; not recombinant
T1 sequence (Q96376 1-870): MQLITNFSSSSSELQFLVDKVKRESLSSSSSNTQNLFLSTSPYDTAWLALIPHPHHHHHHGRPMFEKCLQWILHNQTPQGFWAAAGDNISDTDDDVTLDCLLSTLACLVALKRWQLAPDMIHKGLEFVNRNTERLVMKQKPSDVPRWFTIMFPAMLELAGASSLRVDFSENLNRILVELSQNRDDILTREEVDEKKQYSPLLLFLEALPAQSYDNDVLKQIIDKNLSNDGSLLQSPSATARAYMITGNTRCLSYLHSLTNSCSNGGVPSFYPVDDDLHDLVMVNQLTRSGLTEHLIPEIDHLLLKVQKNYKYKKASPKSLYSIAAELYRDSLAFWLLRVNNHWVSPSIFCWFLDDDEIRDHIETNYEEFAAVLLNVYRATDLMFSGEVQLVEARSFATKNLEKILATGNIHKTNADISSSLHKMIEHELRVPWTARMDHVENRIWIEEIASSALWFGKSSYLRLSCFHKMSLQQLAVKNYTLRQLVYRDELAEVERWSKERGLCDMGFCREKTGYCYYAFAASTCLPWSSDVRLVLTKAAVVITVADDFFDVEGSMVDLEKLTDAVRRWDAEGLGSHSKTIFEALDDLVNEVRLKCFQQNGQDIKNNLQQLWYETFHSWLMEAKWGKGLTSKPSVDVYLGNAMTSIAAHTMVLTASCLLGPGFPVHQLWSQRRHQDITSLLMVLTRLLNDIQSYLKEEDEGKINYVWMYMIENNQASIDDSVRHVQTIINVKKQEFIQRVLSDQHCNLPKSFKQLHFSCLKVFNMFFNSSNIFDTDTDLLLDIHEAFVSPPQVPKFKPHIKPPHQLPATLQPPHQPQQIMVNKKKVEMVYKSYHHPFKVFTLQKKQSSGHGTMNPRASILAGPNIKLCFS
Method: The crude extract (100 ml) was loaded onto a DEAE-cellulose (0.7 cm diam.×6 cm) column (Whatman, DE52) that was pre-equilibrated with a solution containing 50 mM BisTris, pH 6.9, 10% glycerol and 10 mM DTT (buffer A) at a flow rate of about 1 ml/min. Following elution of the unadsorbed material, the column was washed with 50 ml of buffer A followed by an additional 20 ml of buffer A containing 150 mM KCl. LIS activity was then eluted with 20 ml of buffer A containing 250 mM KCl. Fractions with the highest LIS activity (about 60% yield, 10 ml), were either pooled and used immediately, or frozen at -20° C. for up to 1 month with less than 20% loss of activity. The DEAE-cellulose purified fractions were diluted 2-fold with ice-cold buffer A, and loaded on a 1 cm diam.×10cm hydroxyapatite column (Bio-Gel HT, Bio-Rad, Richmond, Calif.) installed in a Pharmacia FPLC apparatus, and pre-equilibrated with 100 ml of buffer A, at a flow rate of 0.5 ml/min. After the enzyme was loaded, the column was washed with 20 ml buffer A and then eluted using a linear gradient (100 ml) from 0 to 200 mM Na-phosphate in buffer A. The fractions containing LIS activity, eluting at about 100 mM Na-phosphate, were pooled (10 to 16 ml) and loaded on a pre-packed Pharmacia Mono-Q HR 5/5 FPLC column equilibrated with buffer A. After a 20-ml wash with buffer A, a steep linear gradient from 0 to 100 mM KCl in buffer A (10 ml) was applied, followed by a more gradual linear gradient from 100 to 400 mM KCl in buffer A (100 ml, 0.25 ml/min). The enzyme consistently eluted at about 220 mM KCl. After dialysis to assay conditions, the enzyme at this level of purity was used for characterization.
After incubation, the assay mixture was briefly mixed again to extract non-polar products into the organic layer. An 800-μl aliquot of the hexane phase was placed into a scintillation vial containing 10 ml of a cocktail of 0.4% (w/v) Omnifluor (Du Pont, Boston Mass.) dissolved in 30% (v/v) ethanol in toluene and counted in a Packard TriCarb 460 CD scintillation spectrometer (efficiency for ^3 H=36%) to determine the total monoterpene synthase activity. To examine in detail the products formed, radio-GC was performed as described (Croteau et al., 1990). For this purpose, the 2 ml pentane extract containing the enzymatically formed ^3 H-labeled products was removed, dried by passage through MgSO4, and internal standards were added (10 μg each of linalool and geraniol; nerol was UD also included in initial experiments). The mixture was then concentrated to ~10 μl under a gentle stream of nitrogen, and an aliquot (2-3 μl) was injected into a Gow-Mac 550P radio gas chromatograph fitted with a 0.125 in ×12 ft stainless steel column loaded with AT-1000 (Gas Chrom Q, Alltech), attached to a Packard 894 gas proportional counter. The initial column temperature was 170° C. and, following a 5 min hold, was programmed at 5° C./min to 220° C., using He at a flow rate of 50 ml/min. Control incubations included the omission of enzyme extract, the use of boiled enzyme extract, the omission of substrate, and the omission of divalent cations. All of these controls produced negligible radioactivity in the hexane phase of the enzyme assay mixtures.
The enantiomeric composition of linalool samples was determined on a fused silica capillary column (0.25 mm internal diam.×30 m) coated with a 0.25 μm film of β-cyclodextrin (J & W Scientific, Cyclodex B), operated at an initial temperature of 75° C. for 15 min followed by a rise of 5° C./min to 200° C. H2 at a head pressure of 13.5 psi was used as carrier gas (Alonso et al., 1992).

[2] = biological target: T2, LIS (linalool synthase) in crude extracts (Clarkia breweri, UniProt Q96376); experiment: LIS activity assay in crude extracts of open C. breweri flowers; format: biochemical
T2 sequence (Q96376 1-870): T1 sequence (Q96376 1-870)
Method: LIS activity was assayed by combining crude extract with ^3 H-GPP (or other substrates) in a buffer containing co-factors. LIS activity was monitored by counting the radioactive linalool extracted from the assay buffer with hexane (GPP is not soluble in hexane) in a scintillation counter. Radio-GC analyses (Croteau et al., 1990) were also undertaken because GPP could be enzymatically hydrolyzed by non-specific phosphatases to produce geraniol, or the tissue might contain other monoterpene synthases, and geraniol or the other monoterpenes that may be produced are also soluble in the organic phase. […] Furthermore, with a special stereo-GC column it was also shown that the product of the reaction is exclusively S-linalool.
A crude protein extract was prepared by macerating flower parts in a microcentrifuge tube in the presence of ice-cold buffer (10 volumes:fresh weight) containing 50 mM BisTris-HCl pH 6.9, 10 mM DTT, 5 mM Na2 S2 O5, 1% (w/v) PVP-40 and 10% (v/v) glycerol. The slurry was centrifuged for 10 min and the supernatant transferred to a new tube. For each time point, extracts of 3 to 5 flowers from 3 different plants were combined. […]
After 1 h, the tube was vortexed again and the amount of the radioactive linalool product, which partitioned into the organic phase, was determined by an LSC of an aliquot. […]

[3] = divalent metal ion required for activity, read-out: Km of divalent metal ion cofactor

[Ca+2] [Ca^2+]
whether the divalent metal ion supports the enzymatic reaction (Neither ... nor ... support) [1]: Neither

Hydroxyapatite
Specific Activity [1]: 44.1 pkat mg^-1 | specific activity of preparation loaded on Superdex 75 ([1]; hydroxyapatite-purified enzyme): 44.1 pkat/mg protein

[3H]C=C[C@@](C)(CCC=C(C)C)OP(=O)(O)OP(=O)(O)O [3R-[1-^3 H]Linalyl pyrophosphate, reference compound]
rate of conversion to linalool relative to the rate for GPP [1]: essentially not converted to linalool | Rate (substrate specificity, relative to GPP = 100%) [1]: 0.6 ± 0.6%

[Mg+2] [Mg^2+]
efficiency of divalent metal ion as cofactor (in words) [1]: half the rate | Km [1, 3]: 330 µM

[Cu+2] [Cu^2+]
whether the divalent metal ion supports the enzymatic reaction (Neither ... nor ... support) [1]: Neither

[Co+2] [Co^2+]
whether the divalent metal ion supports the enzymatic reaction (Neither ... nor ... support) [1]: Neither

[Mn+2] [Mn^2+]
efficiency of divalent metal ion as cofactor (in words) [1]: most efficient | Km [1, 3]: 45 µM

CC(C)=CCC/C(C)=C/COP(=O)(O)OP(=O)(O)O [GPP, Geranyl Pyrophosphate, reference compound]
Km ([1]; calculated from a Lineweaver-Burk plot, purified enzyme, read-out: Km value for GPP): 0.9 µM | Rate (substrate specificity, relative to GPP = 100%) [1]: 100 ± 9.6% | Rate with GPP corresponding to 100% ([1]; substrate at 12 μM, Table 6 footnote b): 22. 2 pkat/mg protein | cofactor / substrate requirement of LIS activity [2]: the only substrate

[Zn+2] [Zn^2+]
whether the divalent metal ion supports the enzymatic reaction (Neither ... nor ... support) [1]: Neither

CCCCCCCCCCCCOS(=O)(=O)[O-].[Na+] [sodium dodecyl sulfate, reference compound]
effect of detergent on enzyme activity [1]: complete loss of activity

Triton-X-100 [reference compound]
effect of detergent on enzyme activity [1]: no effect on enzyme activity

[3H]C=C[C@](C)(CCC=C(C)C)OP(=O)(O)OP(=O)(O)O [3S-[1-^3 H]Linalyl pyrophosphate, reference compound]
rate of conversion to linalool relative to the rate for GPP [1]: 15% | Rate (substrate specificity, relative to GPP = 100%) [1]: 15.1 ± 6.0%

B1: LIS: S-linalool synthase purified from stigmata of C. breweri (Mono Q purified enzyme used for characterization), SEQ ID NO:2 (protein)
chain: MQLITNFSSSSSELQFLVDKVKRESLSSSSSNTQNLFLSTSPYDTAWLALIPHPHHHHHHGRPMFEKCLQWILHNQTPQGFWAAAGDNISDTDDDVTLDCLLSTLACLVALKRWQLAPDMIHKGLEFVNRNTERLVMKQKPSDVPRWFTIMFPAMLELAGASSLRVDFSENLNRILVELSQNRDDILTREEVDEKKQYSPLLLFLEALPAQSYDNDVLKQIIDKNLSNDGSLLQSPSATARAYMITGNTRCLSYLHSLTNSCSNGGVPSFYPVDDDLHDLVMVNQLTRSGLTEHLIPEIDHLLLKVQKNYKYKKHHQNHCIALLRNYTGFISIFGCFESIITGYHHQFFCWFLDDDEIRDHIETNYEEFAAVLLNVYRATDLMFSGEVQLVEARSFATKNLEKILATGNIHKTNADISSSLHKMIEHELRVPWTARMDHVENRIWIEEIASSALWFGKSSILRLSCFHKMSLQQLAVKNYTLRQLVYRDELAEVERWSKERGLCDMGFCREKTGYCYYAFAASTCLPWSSDVRLVLTKAAVVITVADDFFDVEGSMVDLEKLTDAVRRWDAEGLGSHSKTIFEALDDLVNEVRLKCFQQNGQDIKNNLQQLWYETFHSWLMEAKWGKGLTSKPSVDVYLGNAMTSIAAHTMVLTASCLLGPGFPVHQLWSQRRHQDITSLLMVLTRLLNDIQSYLKEEDEGKINYVWMYMIENNQASIDDSVRHVQTIINVKKQEFIQRVLSDQHCNLPKSFKQLHFSCLKVFNMFFNSSNIFDTDTDLLLDIHEAFVSPPQVPKFKPHIKPPHQLPATLQPPHQPQQIMVNKKKVEMVYKSYHHPFKVFTLQKKQSSGHGTMNPRASILAGPNIKLCFS
pH optimum ([1]; broad optimum): 7.4 | Specific Activity [1]: 395 pkat mg^-1 | stability to vigorous vortexing with non-polar organic solvents ([1]; hexane and pentane): very stable | loss of activity in the absence of DTT ([1]; over 2 h at 4° C.): > 95% | rate at pH 6.4 and 8.4 relative to the optimal ([1]; pH 6.4 and 8.4): ~ 80% | turnover number ([1]; under saturating conditions): 31.6 s⁻¹
